Test results from US9828344B2, “Inhibitors of the notch signaling pathway and secretion for use in medicine” (Leibniz-Institut für Altersforschung Fritz-Lipmann-Institut …, priority 2012, dated 2017).

Experiments:
[1] = system: Klotho; test: Klotho trafficking/processing in HEK293 cells stably expressing Klotho; assay type: cell-based; settings: 10 μM, 16 h
Description: FIG. 3: Effect of compounds on NotchΔE-EGFP, APP and Klotho trafficking and processing. a) HEK293 stably expressing APPswe or Klotho (KI) were incubated with DAPT or compounds (10 μM) for 16 h. Media were collected, cells lysed and both assayed by Western blotting using indicated antibodies. m, mature; im, immature; s, shedded ectodomain; CTF, C-terminal fragment. b) Membranes from HeLa-NotchΔE-EGFP and APPswe cells were isolated and subjected to a γ-secretase in vitro assay in the presence of DAPT or compounds as indicated. NICD and AICD were detected by Western Blotting using antibodies against the C-terminus of APP (top) or antibodies specific for NICD (bottom). c) Quantitation from 5 independent experiments.
To test whether FLI-06 affected other membrane proteins, Klotho, a type I protein processed like APP and Notch^20, was analyzed. […] To analyze γ-secretase activity, in vitro assays using isolated membranes were performed (FIG. 3b, c). Production of NICD-EGFP and AICD (APP intracellular domain) were assayed. Both were produced in vitro at 37° C. but not at 4° C., and their production was inhibited by DAPT.
APP, APPs, APPCTF and Aβ detection was as described before^54 using antibodies 22C11 for APP and APPs, 6687 for APPCTF and 3552 and 2D8 for Aβ. Klotho was detected as described in Bloch et al.^20. Chemoluminescence was quantified on a LAS-4000 (Fuji) with MultiGauge software.

[2] = system: SEAP; test: Secreted alkaline phosphatase (SEAP) assay in HeLa cells; assay type: cell-based; settings: medium measured via photometry
Description: (§1) FIG. 18: FLI-06 inhibits secretion of secreted alkaline phosphates; FLI-06 kills cancerous, Notch dependent T-cells. a) The secreted alkaline phosphatase (SEAP) assay was carried out. Medium was collected and SEAP secretion was measured via photometry. […] The cells were grown in suspension with the indicated amounts of FLI-06 or DMSO control and growth was determined via FACS analysis.
In order to confirm the inhibitory effect of FLI-06 on secretion we transfected HeLa cells with a plasmid encoding a secreted alkaline phosphatase (SEAP).

[3] = system: ER; test: ER tubule-to-sheet live-cell imaging in COS cells (prlss-KDEL-mRFP); assay type: cell-based
Description: FIG. 7: FLI-06 induces ER sheet formation. A) COS cells transfected with prlss-KDEL-mRFP were incubated with 10 μM FLI-06 for indicated times and imaged by live-cell microscopy. The inserts are magnifications of the boxed areas. B) Images from cells treated as in A) were scored for the percentage of cells that lost most of their ER-tubules. For each time point 40-60 cells were counted. Data represent mean percentages, error bars SEM, n=3 independent experiments.
FIG. 16: Only ER exit inhibitors convert ER tubules to sheets. COS cells plated on LabTek chambered coverslips were transiently transfected with the ER-marker prlss-KDEL-mRFP, incubated the next day for 2 h with 10 iM of indicated compounds and imaged by live-cell microscopy. […] FLI-06+CHX, cells were additionally incubated in 40 iM cycloheximide. Nife, nifedipine; nimo, nimodipine. Numbers refer to numbering in FIG. 5a.
We noted a morphological change of the ER upon FLI-06 incubation that was difficult to capture in fixed cells. Live-cell imaging was therefore performed in COS cells transfected with the ER marker prlss-KDEL-mRFP (supp. Ref 3) and FLI-06 was added for 120 min (FIG. 7a). After 120 min almost all cells had no detectable ER-tubules anymore and instead were filled with large sheet-like structures. […] To test whether the morphological change is related to the inhibition of ER exit, next our set of FLI-06 derivatives was tested. […] Rather, the ER-sheets are indicative for structural changes, maybe initiated within ERES, that inhibit ER exit.

[4] = system: endocytosis; test: Transferrin uptake assay; assay type: cell-based
Description: FIG. 13: FLI-06 causes dispersal of early Golgi and TGN, but no tubulation of endosomes. Hela cells were incubated with DMSO or 10 iM FLI-06 or 1 ig/ml BFA for 18 h, fixed, stained with antibodies as indicated and imaged by fluorescence microscopy. Endosomes were visualized by adding Alexa555-labelled transferrin on ice and chasing for 15 min at 37° C. in the presence of indicated compounds. Arrows indicated tubulating endosomes, scalebar 10 im.
For the transferrin uptake assay cells were starved in serum free medium for 1 h at 37° C. Cells were then transferred on ice and medium was exchanged to serum free medium supplemented with 25 μg/ml AlexaFluor555-Transferrin conjugate (Molecular Probes) and test compounds. After 15 min on ice cells were incubated with pre-warmed serum-supplemented medium containing test compounds and incubated at 37° C.

[5] = system: DND-41 cells; test: Growth of DND-41 cells (FACS); assay type: cell-based
Description: as §1
To test whether FLI-06 would ultimately be useful to treat cancerous diseases we incubated DND-41 cells having a Notch heterodimerization domain that leads to hyperactive Notch signaling (Weng et al, Science, 2004) with FLI-06.

[6] = system: microtubuli or actin; test: Microtubule and actin integrity in HeLa cells; assay type: cell-based; settings: 4 h
[7] = system: BIP and ATF6; settings: human, 24 h
[8] = system: Golgi apparatus; test: Immunofluorescence of Golgi and early secretory pathway markers in HeLa cells; assay type: cell-based
[9] = biological target: T1, GBF1 (Homo sapiens, UniProt Q92538); test: GBF1-GFP distribution in transfected HeLa cells; assay type: cell-based; settings: FLI-06 10 μM, BFA 10 μg/ml, GCA 10 μM, 10 h
T1 construct: expressed in transfected cells; host or cells: HeLa (transient)
T1 sequence (Q92538 whole entry, species assumed): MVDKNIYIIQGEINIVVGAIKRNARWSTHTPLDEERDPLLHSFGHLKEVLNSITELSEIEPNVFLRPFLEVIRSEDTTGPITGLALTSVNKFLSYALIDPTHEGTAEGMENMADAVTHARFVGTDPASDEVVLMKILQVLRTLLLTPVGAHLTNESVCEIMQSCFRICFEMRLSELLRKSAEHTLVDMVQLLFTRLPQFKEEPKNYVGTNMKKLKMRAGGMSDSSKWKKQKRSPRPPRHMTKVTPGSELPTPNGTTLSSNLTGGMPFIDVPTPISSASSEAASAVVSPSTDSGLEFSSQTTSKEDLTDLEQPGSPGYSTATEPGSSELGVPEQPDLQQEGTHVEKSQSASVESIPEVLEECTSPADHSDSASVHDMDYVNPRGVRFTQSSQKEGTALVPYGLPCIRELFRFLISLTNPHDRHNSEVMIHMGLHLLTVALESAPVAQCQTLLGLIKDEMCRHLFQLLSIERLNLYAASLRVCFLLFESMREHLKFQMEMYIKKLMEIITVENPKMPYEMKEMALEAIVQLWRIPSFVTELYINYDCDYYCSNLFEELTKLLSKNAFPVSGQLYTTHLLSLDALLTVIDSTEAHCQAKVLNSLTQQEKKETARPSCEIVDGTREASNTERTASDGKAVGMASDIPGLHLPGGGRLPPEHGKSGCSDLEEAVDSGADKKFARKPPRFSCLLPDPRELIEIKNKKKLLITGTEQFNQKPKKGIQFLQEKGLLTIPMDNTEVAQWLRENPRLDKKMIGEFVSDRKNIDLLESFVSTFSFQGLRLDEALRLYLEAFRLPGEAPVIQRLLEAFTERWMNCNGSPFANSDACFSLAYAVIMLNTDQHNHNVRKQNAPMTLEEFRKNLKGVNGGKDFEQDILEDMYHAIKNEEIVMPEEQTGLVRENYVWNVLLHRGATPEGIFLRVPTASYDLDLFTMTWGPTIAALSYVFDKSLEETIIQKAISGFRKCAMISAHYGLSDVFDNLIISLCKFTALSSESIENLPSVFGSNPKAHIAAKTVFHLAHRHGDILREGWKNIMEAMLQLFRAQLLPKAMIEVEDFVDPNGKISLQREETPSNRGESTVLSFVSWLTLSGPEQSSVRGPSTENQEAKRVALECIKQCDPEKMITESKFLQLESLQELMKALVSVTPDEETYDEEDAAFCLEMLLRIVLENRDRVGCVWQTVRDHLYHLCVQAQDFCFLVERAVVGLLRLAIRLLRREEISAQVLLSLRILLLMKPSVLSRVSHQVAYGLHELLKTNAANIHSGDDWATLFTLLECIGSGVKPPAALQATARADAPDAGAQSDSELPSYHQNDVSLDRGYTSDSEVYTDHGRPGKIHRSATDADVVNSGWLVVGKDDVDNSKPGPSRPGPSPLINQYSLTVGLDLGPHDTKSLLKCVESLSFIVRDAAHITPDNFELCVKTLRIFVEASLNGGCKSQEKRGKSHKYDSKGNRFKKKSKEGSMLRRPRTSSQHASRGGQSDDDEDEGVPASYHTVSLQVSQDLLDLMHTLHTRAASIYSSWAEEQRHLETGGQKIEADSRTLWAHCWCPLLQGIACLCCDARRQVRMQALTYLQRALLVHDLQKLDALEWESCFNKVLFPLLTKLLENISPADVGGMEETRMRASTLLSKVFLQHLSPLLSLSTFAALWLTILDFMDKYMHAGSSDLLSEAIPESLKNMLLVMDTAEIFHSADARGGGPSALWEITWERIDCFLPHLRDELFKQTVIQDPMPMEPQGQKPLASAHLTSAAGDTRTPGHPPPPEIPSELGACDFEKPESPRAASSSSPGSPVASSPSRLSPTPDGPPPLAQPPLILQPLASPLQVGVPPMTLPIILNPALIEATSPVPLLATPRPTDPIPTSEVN

For `CC1=C(C(=O)OC2CCCCC2)C(c2ccc([N+](=O)[O-])cc2)C2=C(CC(C)(C)CC2=O)N1` (centres unmarked) [FLI-06, Cyclohexyl 4-(4′-nitrophenyl)-2,7,7-trimethyl-5-oxo-1,4,5,6,7,8-hexahydroquinoline-3-carboxylate], the “glycosylation of Klotho” value [1] was “aberrant glycosylation”, the “mature, complex-glycosylated post-Golgi form of Klotho” value [1] was “strongly reduced” and the “shedded Klothos in the medium” value [1] was “strong reduction of Klothos in the medium”. The “secretion of SEAP” value [2] was “inhibition of secretion of SEAP”, the “start of ER sheet-formation” value ([3]; 10 μM FLI-06) was 5 to 10 min and the “t1/2 of ER sheet-formation” value ([3]; 10 μM FLI-06) was “about 14 min”. For the same molecule, the ER tubule-to-sheets phenotype ([3]; 10 iM, 2 h) was “elicited the tubule-to-sheets phenotype”, the endocytosis of transferrin [4] was “did not affect endocytosis” and the “effect on DND-41 cells” value ([5]; 1 μM) was “inhibited proliferation”. For the same molecule, the “effect on DND-41 cells” value ([5]; 10 μM) was “total cell death after 4 days”, the microtubule network ([6]; 1.5 ig/ml nocodazole or 10 iM FLI-06) was “does not act on the cytoskeleton” and the “actin polymerization and distribution” value ([6]; 2 iM cytochalasin D or 10 iM FLI-06) was “unaffected”. The “ER-stress (BIP up-regulation, ATF6 luciferase)” value [7] was “only very mild ER-stress after 24 h”, the “Golgi integrity (giantin)” value ([8]; 10 μM, 18 h) was “complete disruption of the Golgi” and the “time to loss of Golgi-like juxtanuclear βCOP staining” value ([8]; 1 ig/ml BFA or 10 iM FLI-06) was 30 to 40 min. For the same molecule, the “distribution of GM130 and TGN46” value ([8]; 10 iM FLI-06 or 1 ig/ml BFA, 18 h) was “dispersal of the cis-Golgi marker GM130 and of the trans-Golgi network (TGN) marker TGN46”, the “hyperglycosylation of VSVG-EGFP” value ([8]; 4 h at 40° C. with cycloheximide) was “did not cause a hyperglycosylation” and the tubulation of endosomes ([8]; Alexa555-transferrin labelled endosomes) was “did not cause tubulation of endosomes”. For the same molecule, the “fusion of ER and Golgi” value ([8]; prlss-KDEL-mRFP and B4GALT-EGFP markers) was “did not lead to fusion of ER and Golgi” and the “distribution of GBF1-GFP” value [9] was “displayed the distribution of control cells”.
